Reference: patent publication US9493451B2 (Bionomics Limited, priority 2011, dated 2016)

The compounds below were run against T1, Kv1.3 (Homo sapiens, UniProt P22001) (assay: Electrophysiology: planar patch-clamp of Kv1.3 currents, IC50 from steady state current amplitude). Settings: Kv1.3 electrophysiology, results according to Method D1, read-out: IC50 (Kv1.3 ephys steady state).
T1 construct: expressed in transfected cells; host or cells: CHO (Kv1.3/CHO)
Assay type: cell-based
How it was run: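 Planar patch-clamp, whole-cell, Kv1.3/CHO cells; 500 ms pulses to +40 mV from −80 mV every 30 s; bath pH 7.4, pipette pH 7.2; 0.5% DMSO final. 5-6 cumulative concentrations on 2-3 cells to steady-state block; IC50 from Hill fit of normalised steady-state current at pulse end.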

T1 sequence (P22001 whole entry): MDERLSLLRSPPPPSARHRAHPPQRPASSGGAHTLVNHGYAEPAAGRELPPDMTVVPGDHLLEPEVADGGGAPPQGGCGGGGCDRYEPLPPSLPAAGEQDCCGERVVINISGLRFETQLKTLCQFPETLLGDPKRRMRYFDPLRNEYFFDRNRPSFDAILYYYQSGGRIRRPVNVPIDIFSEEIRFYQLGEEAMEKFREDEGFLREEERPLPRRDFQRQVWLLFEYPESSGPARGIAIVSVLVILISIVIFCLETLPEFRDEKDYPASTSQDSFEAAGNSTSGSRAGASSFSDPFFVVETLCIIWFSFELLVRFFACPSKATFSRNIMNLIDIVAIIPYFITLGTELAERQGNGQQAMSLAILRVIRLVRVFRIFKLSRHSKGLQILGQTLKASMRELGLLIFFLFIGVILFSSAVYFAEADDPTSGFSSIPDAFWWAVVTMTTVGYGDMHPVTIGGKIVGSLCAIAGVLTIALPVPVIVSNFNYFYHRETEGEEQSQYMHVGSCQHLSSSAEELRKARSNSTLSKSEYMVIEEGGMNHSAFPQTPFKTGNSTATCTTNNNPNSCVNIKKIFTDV

IC50 | Structure (SMILES)
50 to 200 nM | O=C(CS(=O)(=O)c1ccccc1)N(Cc1ncccc1F)C(c1ccc(OC(F)F)cc1)C1CC1 (stereo not shown) [Example 303]
50 to 200 nM | O=C(CS(=O)(=O)c1ccccc1)N(Cc1ncccc1F)C(c1ccc(OC(F)F)cc1)C1CC1 (stereo not shown) [Example 304]
50 to 200 nM | O=C(CS(=O)(=O)c1ccccc1)N(Cc1cccnn1)C(c1ccc(OC(F)F)cc1)C1CC1 (stereo not shown) [Example 305]
200 to 1000 nM | O=C(CS(=O)(=O)c1ccccc1)N(Cc1cccnn1)C(c1ccc(OC(F)F)cc1)C1CC1 (stereo not shown) [Example 306]
50 to 200 nM | O=C(CS(=O)(=O)c1cccc(C(F)(F)F)c1)N(Cc1cccnn1)C(c1ccc(OC(F)F)cc1)C1CC1 (stereo not shown) [Example 307]
50 to 200 nM | CC(C)(C(=O)N(Cc1cccnn1)C(c1ccc(OC(F)F)cc1)C1CC1)S(=O)(=O)c1ccc(F)cc1 (stereo not shown) [Example 308]
50 to 200 nM | O=C(CS(=O)(=O)c1ccc(F)cc1)N(Cc1ncccc1F)C(c1ccc(OC(F)F)cc1)C1CC1 (stereo not shown) [Example 309]
200 to 1000 nM | O=C(CS(=O)(=O)c1cccc(C(F)(F)F)c1)N(Cc1cccnn1)C(c1ccc(OC(F)F)cc1)C1CC1 (stereo not shown) [Example 310]
200 to 1000 nM | CC(C)(C(=O)N(Cc1cccnn1)C(c1ccc(OC(F)F)cc1)C1CC1)S(=O)(=O)c1ccc(F)cc1 (stereo not shown) [Example 311]
50 to 200 nM | O=C(CS(=O)(=O)c1ccc(F)cc1)N(Cc1ccc(C(F)(F)F)nc1)C(c1ccc(OC(F)F)cc1)C1CC1 (stereo not shown) [Example 312]
50 to 200 nM | O=C(CS(=O)(=O)c1ccc(F)cc1)N(Cc1ccc(C(F)(F)F)nc1)C(c1ccc(OC(F)F)cc1)C1CC1 (stereo not shown) [Example 313]
200 to 1000 nM | O=C(CS(=O)(=O)c1ccc(F)cc1)N(Cc1ccccn1)C(c1ccc(OC(F)F)cc1)C1CC1 (stereo not shown) [Example 314]
200 to 1000 nM | O=C(CS(=O)(=O)c1ccc(F)cc1)N(C1CCC(F)(F)CC1)C(c1ccc(OC(F)F)cc1)C1CC1 (stereo not shown) [Example 315]
200 to 1000 nM | O=C(CS(=O)(=O)c1ccc(F)cc1)N(C1CCC(F)(F)CC1)C(c1ccc(OC(F)F)cc1)C1CC1 (stereo not shown) [Example 316]
200 to 1000 nM | O=C(CS(=O)(=O)c1ccc(F)cc1)N(C1CCOCC1)C(c1ccc(OC(F)F)cc1)C1CC1 (stereo not shown) [Example 317]
50 to 200 nM | CC(C)(C(=O)N(Cc1ccccn1)C(c1ccc(OC(F)F)cc1)C1CC1)S(=O)(=O)c1ccc(F)cc1 (stereo not shown) [Example 318]
50 to 200 nM | CC(C)(C(=O)N(Cc1ccccn1)C(c1ccc(OC(F)F)cc1)C1CC1)S(=O)(=O)c1ccc(F)cc1 (stereo not shown) [Example 319]
< 50 nM | Cc1cccc(CN(C(=O)CS(=O)(=O)c2ccc(F)cc2)C(c2ccc(OC(F)F)cc2)C2CC2)n1 (stereo not shown) [Example 320]
50 to 200 nM | Cc1ccc(CN(C(=O)CS(=O)(=O)c2ccccc2)C(c2ccc(OC(F)F)cc2)C2CC2)cn1 (stereo not shown) [Example 322]
200 to 1000 nM | Cc1ccc(CN(C(=O)CS(=O)(=O)c2ccccc2)C(c2ccc(OC(F)F)cc2)C2CC2)cn1 (stereo not shown) [Example 323]
50 to 200 nM | CC(C)(C(=O)N(Cc1ccc(C(F)(F)F)nc1)C(c1ccc(OC(F)F)cc1)C1CC1)S(=O)(=O)c1ccccc1 (stereo not shown) [Example 324]
1000 to 2000 nM | CCS(=O)(=O)c1cccc(C(C2CC2)N(Cc2ncccc2F)C(=O)CS(=O)(=O)c2ccccc2)c1 (stereo not shown) [Example 327]
200 to 1000 nM | CCS(=O)(=O)c1cccc(C(C2CC2)N(Cc2ccccn2)C(=O)C(C)(C)S(=O)(=O)c2ccccc2)c1 (stereo not shown) [Example 328]
50 to 200 nM | O=C(CS(=O)(=O)c1ccc(F)cc1)N(Cc1ccccn1)C(c1ccccc1OCC(F)F)C1CC1 (stereo not shown) [Example 329]
50 to 200 nM | O=C(CS(=O)(=O)c1ccc(F)cc1)N(Cc1ccc(C(F)(F)F)nc1)C(c1ccccc1OCC(F)F)C1CC1 (stereo not shown) [Example 330]
50 to 200 nM | Cc1cccc(CN(C(=O)CS(=O)(=O)c2ccc(F)cc2)C(c2ccccc2OC(F)(F)F)C2CC2)n1 (stereo not shown) [Example 331]
50 to 200 nM | N#Cc1cccc(C(C2CC2)N(Cc2ccc(C(F)(F)F)nc2)C(=O)CS(=O)(=O)c2ccc(F)cc2)c1 (stereo not shown) [Example 332]
200 to 1000 nM | N#Cc1cccc(C(C2CC2)N(Cc2ccc(C(F)(F)F)nc2)C(=O)CS(=O)(=O)c2ccc(F)cc2)c1 (stereo not shown) [Example 333]
